Consider 17 compounds from US8816085B2 (Takeda GmbH, priority 2009, dated 2014).

The first experiment concerns the target T1, PDE5A1 (human PDE5 from platelets) (Homo sapiens, UniProt O76074).
T1 construct: from tissue; host or cells: platelets from fresh blood of human donors (10,000 g supernatant of sonified platelets)
In words: Inhibition of type 5 phosphodiesterase (PDE5) activity, modified SPA test. The note with it: PDE5-containing human platelet lysate, 0.5 μM cGMP, value classes, read-out: PDE5A1 inhibitory values [measured as −logIC50 (mol/l)] (converted). It is filed as biochemical. The method in brief:
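Enzyme source: human platelet lysate (10,000 g supernatant), with 1 μM motapizone and 10 nM PDE2 inhibitor present. SPA format in 20 mM Tris pH 7.4, 5 mM Mg2+, 0.5 μM cGMP with [3H]cGMP tracer; 5 min preincubation at 37 °C, 15 min reaction, stopped with IBMX-containing beads. IC50 by non-linear regression.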
For the compound `CC(=O)N1CCC(NC(=O)c2c(C)[nH]c3c(-c4c(OCC5CC5)ccc5c4OCO5)ccnc23)CC1` [Example E01, N-(1-Acetylpiperidin-4-yl)-7-[5-(cyclopropylmethoxy)-1,3-benzodioxol-4-yl]-2-methyl-1H-pyrrolo[3,2-b]pyridine-3-carboxamide], the IC50 was below 1 nM.

Turning to `Cc1[nH]c2c(-c3c(OCC4CC4)ccc4c3OCO4)ccnc2c1C(=O)NC1CCN(C(=O)[C@H](C)O)CC1` [Example F02, 7-[5-(Cyclopropylmethoxy)-1,3-benzodioxol-4-yl]-N-{1-[(2S)-2-hydroxypropanoyl]piperidin-4-yl}-2-methyl-1H-pyrrolo[3,2-b]pyridine-3-carboxamide], the IC50 is below 1 nM.

Take `Cc1[nH]c2c(-c3ccc(F)cc3OCC3CC3)ccnc2c1C(=O)N[C@H]1CC[C@H](NC(=O)[C@H](C)O)CC1` [Example F09, 7-[2-(Cyclopropylmethoxy)-4-fluorophenyl]-N-(trans-4-{[(2S)-2-hydroxypropanoyl]amino}cyclohexyl)-2-methyl-1H-pyrrolo[3,2-b]pyridine-3-carboxamide]: the IC50 is below 1 nM.

For the compound `Cc1[nH]c2c(-c3cc(F)ccc3OCC3CC3)ccnc2c1C(=O)NC1CCN(C(=O)[C@H](C)O)CC1` [Example F13, 7-[2-(Cyclopropylmethoxy)-5-fluorophenyl]-N-{1-[(2S)-2-hydroxypropanoyl]piperidin-4-yl}-2-methyl-1H-pyrrolo[3,2-b]pyridine-3-carboxamide], the IC50 was 1 to 10 nM.

On to `COCC(=O)N[C@H]1CC[C@H](NC(=O)c2c(C)[nH]c3c(-c4cc(F)c(OC)cc4OCC4CC4)ccnc23)CC1` [Example E81, 7-[2-(Cyclopropylmethoxy)-5-fluoro-4-methoxyphenyl]-N-{trans-4-[(methoxyacetyl)amino]cyclohexyl}-2-methyl-1H-pyrrolo[3,2-b]pyridine-3-carboxamide], for which the IC50 was below 1 nM.

As for `CCC(=O)N[C@H]1CC[C@@H](NC(=O)c2c(C)[nH]c3c(-c4ccc(F)cc4OCC4CC4)ccnc23)CC1` [Example E17], the IC50 was 1 to 10 nM.

For `COCC(=O)N[C@H]1CC[C@@H](NC(=O)c2c(C)[nH]c3c(-c4ccc(OC)cc4OCC4CC4)ccnc23)CC1` [Example E39, 7-[2-(Cyclopropylmethoxy)-4-methoxyphenyl]-N-{cis-4-[(methoxyacetyl)amino]cyclohexyl}-2-methyl-1H-pyrrolo[3,2-b]pyridine-3-carboxamide], the IC50 is 1 to 10 nM.

For `CCC(=O)N1C[C@@H](O)[C@H](NC(=O)c2c(C)[nH]c3c(-c4cc(OC)c(F)cc4OCC4CC4)ccnc23)C1` (relative stereo) [Example E71, 7-[2-(Cyclopropylmethoxy)-4-fluoro-5-methoxyphenyl]-N-[(3R*,4R*)-4-hydroxy-1-propanoylpyrrolidin-3-yl]-2-methyl-1H-pyrrolo[3,2-b]pyridine-3-carboxamide], the IC50 was below 1 nM.

With `COCC(=O)N1CCC(NC(=O)c2c(C)[nH]c3c(-c4cc(C)ccc4OCC4CC4)ccnc23)CC1` [Example E54, 7-[2-(Cyclopropylmethoxy)-5-methylphenyl]-N-[1-(methoxyacetyl)piperidin-4-yl]-2-methyl-1H-pyrrolo[3,2-b]pyridine-3-carboxamide], the IC50 was 1 to 10 nM.

Consider `CC(=O)N[C@H]1CC[C@@H](NC(=O)c2c(C)[nH]c3c(-c4cc(C)ccc4OCC4CC4)ccnc23)CC1` [Example E58, N-[cis-4-(Acetylamino)cyclohexyl]-7-[2-(cyclopropylmethoxy)-5-methylphenyl]-2-methyl-1H-pyrrolo[3,2-b]pyridine-3-carboxamide], for which the IC50 was 1 to 10 nM.

Regarding `CCC(=O)N[C@H]1CC[C@@H](NC(=O)c2c(C)[nH]c3c(-c4cc(OC)c(F)cc4OCC4CC4)ccnc23)CC1` [Example E68, 7-[2-(Cyclopropylmethoxy)-4-fluoro-5-methoxyphenyl]-2-methyl-N-[cis-4-(propanoylamino)cyclohexyl]-1H-pyrrolo[3,2-b]pyridine-3-carboxamide], the IC50 was below 1 nM.

As for `CC(=O)N1CCC(NC(=O)c2c(C)[nH]c3c(-c4ccc(F)cc4OCC4CC4)ccnc23)CC1` [Example E10, N-(1-Acetylpiperidin-4-yl)-7-[2-(cyclopropylmethoxy)-4-fluorophenyl]-2-methyl-1H-pyrrolo[3,2-b]pyridine-3-carboxamide], the IC50 is below 1 nM.

Regarding `COCC(=O)N[C@H]1CC[C@@H](NC(=O)c2c(C)[nH]c3c(-c4ccc(F)cc4OCC4CC4)ccnc23)CC1` [Example E18, 7-[2-(Cyclopropylmethoxy)-4-fluorophenyl]-N-{cis-4-[(methoxyacetyl)amino]cyclohexyl}-2-methyl-1H-pyrrolo[3,2-b]pyridine-3-carboxamide], the IC50 is 1 to 10 nM.

On to `COc1ccc(-c2ccnc3c(C(=O)NC4CCN(C(C)=O)CC4)c(C)[nH]c23)c(OCC2CC2)c1` [Example E31, N-(1-Acetylpiperidin-4-yl)-7-[2-(cyclopropylmethoxy)-4-methoxyphenyl]-2-methyl-1H-pyrrolo[3,2-b]pyridine-3-carboxamide], for which the IC50 is below 1 nM.

On to `COc1cc(-c2ccnc3c(C(=O)NC4CCN(C(=O)[C@H](C)O)CC4)c(C)[nH]c23)c(OCC2CC2)cc1F` [Example F41, 7-[2-(Cyclopropylmethoxy)-4-fluoro-5-methoxyphenyl]-N-{1-[(2S)-2-hydroxypropanoyl]piperidin-4-yl}-2-methyl-1H-pyrrolo[3,2-b]pyridine-3-carboxamide], for which the IC50 was below 1 nM.

In the case of `Cc1ccc(OCC2CC2)c(-c2ccnc3c(C(=O)N[C@H]4CC[C@H](NC(=O)[C@H](C)O)CC4)c(C)[nH]c23)c1` [Example F37, 7-[2-(Cyclopropylmethoxy)-5-methylphenyl]-N-(trans-4-{[(2S)-2-hydroxypropanoyl]amino}cyclohexyl)-2-methyl-1H-pyrrolo[3,2-b]pyridine-3-carboxamide], the IC50 was 1 to 10 nM.

Consider `Cc1[nH]c2c(-c3c(OCC4CC4)ccc4c3OCO4)ccnc2c1C(=O)N[C@H]1CC[C@@H](NC(=O)[C@H](C)O)CC1` [Example F05, 7-[5-(Cyclopropylmethoxy)-1,3-benzodioxol-4-yl]-N-(cis-4-{[(2S)-2-hydroxypropanoyl]amino}cyclohexyl)-2-methyl-1H-pyrrolo[3,2-b]pyridine-3-carboxamide], for which the IC50 is below 1 nM.

For the next experiment, the system named is anaesthetised male Sprague Dawley rats. In words: Phenylephrine-induced acute arterial hypertension and SNP-induced blood pressure response (MAP). The format is in vivo. The note with it: 3 mg/kg orally 90 min prior to SNP (30 μg/kg i.v.); continuous i.v. PE-infusion; vs. placebo. The source says:
Nitric oxide regulates smooth muscle tone by elevation of cGMP via activation of guanylate cyclase and subsequent activation of cyclic GMP-dependent protein kinase. The amplitude and duration of the cGMP signal in smooth muscle is largely regulated by cGMP-specific cyclic nucleotide phosphodiesterase 5 (PDE5). […] The aim of the study was to evaluate the effects of the selective PDE5 inhibitors described in this present subject matter on phenylephrine-induced acute arterial hypertension and sodium-nitroprusside (SNP) induced blood pressure response in anaesthetised male Sprague Dawley rats.
The test compound (suspended in a 4% w/v aqueous methylcellulose solution 3 mg/kg) or placebo (i.e. 4% aqueous methylcellulose solution) is administered orally to conscious Sprague Dawley rats 90 min prior to SNP administration. 40 min later, rats are anaesthetised by intramuscular administration of 80 mg/kg ketamine-HCl+4 mg/kg xylazin-HCl and ventilated with ˜1.5% isoflurane in a mixture of ambient air and 40% oxygen. Catheters for i.v. PE- and SNP-administration and recording of mean arterial blood pressure (MAP) are inserted. […] To assess the effect of test compounds (PDE5 inhibitory activity) in comparison to placebo, MAP response is analysed. […]
Regarding `CC(=O)N1CCC(NC(=O)c2c(C)[nH]c3c(-c4c(OCC5CC5)ccc5c4OCO5)ccnc23)CC1` [Example E01, N-(1-Acetylpiperidin-4-yl)-7-[5-(cyclopropylmethoxy)-1,3-benzodioxol-4-yl]-2-methyl-1H-pyrrolo[3,2-b]pyridine-3-carboxamide], the “efficacy (% change vs. control), corr. AUCMAP 0-180 s following SNP-administration” value is on record as around −27%.

On to `Cc1[nH]c2c(-c3c(OCC4CC4)ccc4c3OCO4)ccnc2c1C(=O)NC1CCN(C(=O)[C@H](C)O)CC1` [Example F02, 7-[5-(Cyclopropylmethoxy)-1,3-benzodioxol-4-yl]-N-{1-[(2S)-2-hydroxypropanoyl]piperidin-4-yl}-2-methyl-1H-pyrrolo[3,2-b]pyridine-3-carboxamide], for which the “efficacy (% change vs. control), corr. AUCMAP 0-180 s following SNP-administration” value is on record as around −27%.
